# Source: patent US7776324B2, “Cancer vaccine” (Malaysian Palm Oil Board (MPOB), priority 2006, dated 2010)
# Tested on: IFN-γ
# Assay: Serum IFN-γ levels following tocotrienol supplementation in mouse models
# Assay type: in vivo
substance,measurement,value
tocotrienol,serum levels of interferon-gamma (IFN-γ),significantly increased
